pIC50: −log10 of the molar value. The source made the active and inactive calls. The calls are words filed in the database; no cut-off is given here.
Legend:
P388 [1] = assay: Cytotoxicity against mouse P388 cells up to 100 uM after 4 days by MTT assay; format: functional, cell-based
[2] = Metal chelating activity assessed as compound-Fe3+ complex formation after 1 hr by LC/MS analysis
P388 [3] = assay: Cytotoxicity against mouse P388 cells after 4 days by MTT assay; format: functional, cell-based; settings: P388, 96 h
[4] = Stability of the compound in physiological conditions at pH > 7; format: physicochemical

Activity [2]	Stability [4]	Compound	Activity (P388 [1])	pIC50 (P388 [3])
inactive		C[C@@H]1ON(CCC[C@@H](NC(=O)[C@H]2N=C(c3ccccc3O)O[C@@H]2C)C(=O)O)C(=O)[C@H]1NC(=O)c1ccccc1O	inactive	
Active	Unstable	C[C@H]1OC(c2ccccc2O)=N[C@@H]1C(=O)N[C@H](CCCN(O)C(=O)[C@H]1N=C(c2ccccc2O)O[C@@H]1C)C(=O)O		4.65

Source: ChEMBL document CHEMBL4196165, “Catenulobactins A and B, Heterocyclic Peptides from Culturing Catenuloplanes sp. with a Mycolic Acid-Containing Bacterium” (J Nat Prod, 2018)
